From the NIST ThermoML archive (doi:10.1016/j.tca.2016.06.023)
Numbers after ± are expanded uncertainties.

Legend:
[1] = refractive index (Na D-line) (dimensionless); xn = mol fraction of the nth substance listed; conditions: 81.5 kPa, Liquid, Standard Abbe refractometry
[2] = xn = mol fraction of the nth substance listed; conditions: 81.5 kPa, Liquid, Vibrating tube method

Compound | refractive index ([1]; 293.15 K, x1 = 1) | refractive index ([1]; 303.15 K, x1 = 1) | refractive index ([1]; 313.15 K, x1 = 1) | refractive index ([1]; 323.15 K, x1 = 1) | refractive index ([1]; 333.15 K, x1 = 1) | mass density ([2]; 293.15 K, x1 = 1) | mass density ([2]; 303.15 K, x1 = 1) | mass density ([2]; 313.15 K, x1 = 1) | mass density ([2]; 323.15 K, x1 = 1) | mass density ([2]; 333.15 K, x1 = 1) | refractive index ([1]; 293.15 K, x2 = 0) | refractive index ([1]; 303.15 K, x2 = 0) | refractive index ([1]; 313.15 K, x2 = 0) | refractive index ([1]; 323.15 K, x2 = 0) | refractive index ([1]; 333.15 K, x2 = 0) | mass density ([2]; 293.15 K, x2 = 0) | mass density ([2]; 303.15 K, x2 = 0) | mass density ([2]; 313.15 K, x2 = 0) | mass density ([2]; 323.15 K, x2 = 0) | mass density ([2]; 333.15 K, x2 = 0)
Clc1ccccc1 [chlorobenzene] + Brc1ccccc1 | 1.52455 ± 0.01 | 1.51902 ± 0.01 | 1.51346 ± 0.01 | 1.50781 ± 0.01 | 1.50223 ± 0.01 | 1106.49 ± 10 kg/m3 | 1095.71 ± 10 kg/m3 | 1084.86 ± 10 kg/m3 | 1073.96 ± 10 kg/m3 | 1063.01 ± 10 kg/m3 |  |  |  |  |  |  |  |  |  | 
O=[N+]([O-])c1ccccc1 [nitrobenzene] + Brc1ccccc1 |  |  |  |  |  |  |  |  |  |  | 1.55241 ± 0.01 | 1.54763 ± 0.01 | 1.54288 ± 0.01 | 1.53795 ± 0.01 | 1.53289 ± 0.01 | 1203.05 ± 10 kg/m3 | 1193.15 ± 10 kg/m3 | 1183.21 ± 10 kg/m3 | 1173.27 ± 10 kg/m3 | 1163.32 ± 10 kg/m3
O=[N+]([O-])c1ccccc1 [nitrobenzene] + Clc1ccccc1 |  |  |  |  |  |  |  |  |  |  | 1.55241 ± 0.01 | 1.54763 ± 0.01 | 1.54288 ± 0.01 | 1.53795 ± 0.01 | 1.53289 ± 0.01 | 1203.05 ± 10 kg/m3 | 1193.15 ± 10 kg/m3 | 1183.21 ± 10 kg/m3 | 1173.27 ± 10 kg/m3 | 1163.32 ± 10 kg/m3
